Data taken from PubChem BioAssay AID1963837 (Molecular Pharmacology Branch, DTP, NCI, 2024).

Test system: 843126-344-R-J1-PDC complex spheroid viability
Experiment: Anticancer human tumor 843126-344-R-J1-PDC patient-derived melanoma cell line growth inhibition [POLQ]
Conditions: for IC50: curve of first compound; for viability, T/C: stronger effect = lower value
Experimental: Multicellular complex tumor spheroid response to Polymerase (POL) inhibitors (novobiocin, ART-558, RP6685) in combination with a variety of drugs and investigational agents in selected tumor cell lines
The POL inhibitors (novobiocin, ART-558, and RP6685) were evaluated both individually and in combination with standard of care and investigational anticancer small molecules within a complex spheroid model of solid tumors. . Complex spheroids include a stromal component modeled by human endothelial cells (HUVEC) and fibroblasts modeled by human mesenchymal stem cells (MSCs). The concentration ranges selected for each drug and investigational agent were based upon clinically achievable concentrations if the clinical Cmax of the agent was known.
Compounds. The drugs and investigational agents: novobiocin (NSC847541), ART-558 (NSC835418), RP-6685 (NSC848927), peposertib (NSC802822), ceralasertib (NSC780249), elimusertib (NSC800525), camonsertib (NSC841442), AZD-1390 (NSC803789), olaparib (NSC753686), talazoparib (NSC767125), rucaparib (NSC756644), sotorasib (NSC818433), MRTX-1133 (NSC836407), SN-38 (NSC673596), topotecan (NSC609699), epotoside (NSC141540), doxorubicin (NSC123127), gemcitabine (NSC613327), 5-fluorouracil (NSC19893), paclitaxel (NSC125973), vemurafenib (NSC761431), MSA-2 (NSC828583), SN-011 (NSC837082), adavosertib (NSC754352), prexasertib (NSC758257), carboplatin (NSC241240) and oxaliplatin (NSC266046), were obtained from the National Cancer Institute (NCI) Developmental Therapeutics Program Chemical Repository (21). The FDA-approved anticancer drug set is available from the Developmental Therapeutics Program at https://dtp.cancer.gov/organization/dscb/obtaining/. […] The stock solutions were prepared in dimethyl sulfoxide (DMSO, Sigma-Aldrich, St. Louis, MO, cat. D2650), except for the platinum compounds which were prepared in saline (Quality Biological, Gaithersburg, MD, cat. 114-055-101), at 800-fold the tested concentration and stored at -70 degrees C prior to their use. All drugs and investigational agents were tested over a range starting from a high concentration at or near the clinical Cmax and decreasing in half-log increments. If the clinical Cmax for an agent had not been determined, the highest concentration tested was 10 microM, except for SN-38, which was tested at a high concentration of 1 microM.
Cell Culture. All cells were maintained in an incubator at 37 degrees C and 5% CO2 with 95% humidity. The PDC lines were cultured according to standard operating procedures established by the NCI PDMR (https://pdmr.cancer.gov). Table 3 of the manuscript, lists the cell lines along with the number of the three cell types plated to form the mct-spheroids and media for tumor cell growth. After thawing, all PDC lines, except 997537-175-T-J1-PDC and 415267-285-R-J2-PDC, were cultured in Matrigel-coated flasks prepared with a working solution of 1X Ham's F-12 nutrient mix, without supplementation (Thermo Fisher Scientific, cat. 11765054), 100 U/mL penicillin-streptomycin (Thermo Fisher Scientific, cat. 15140122), and 2.5% Matrigel (Corning Inc., Corning, NY, cat. 354248) for the first three passages. The two PDC lines 997537-175-T-J1-PDC and 415267-285-R-J2-PDC were cultured on uncoated flasks. The 857933-349-R-J2-PDC line was cultured in 6C/Colon 1B media containing advanced DMEM/F-12 (Thermo Fisher Scientific, cat. 12634028), 10 mM HEPES (Thermo Fisher Scientific, cat. 15630080), 1X GlutaMAX supplement (Thermo Fisher Scientific, cat. 35050061), 0.1 mg/mL primocin (InvivoGen, San Diego, CA, cat. ant-pm-2), 10% defined fetal bovine serum, heat inactivated (HyClone Laboratories Inc., Logan, UT, cat. SH30070.03HI), 50% L-WRN conditioned media (ATCC, cat. CRL-3276), 1.25 mM N-Acetyl-L-cysteine (Sigma-Aldrich, cat. A9165), 10 mM nicotinamide (Sigma-Aldrich, cat. N0636), 1X B-27 supplement (Thermo Fisher Scientific, cat. 17504044), 1X N-2 supplement (Thermo Fisher Scientific, cat. […]

[1] = second compound 0.0316 µM, first compound 0.0316 µM
[2] = second compound 0.0316 µM, first compound 0.1 µM
[3] = second compound 0.0316 µM, first compound 0.316 µM
[4] = second compound 0.0316 µM, first compound 1 µM
[5] = second compound 0.0316 µM, first compound 3.16 µM
[6] = second compound 0.0316 µM, first compound 10 µM
[7] = second compound 0.1 µM, first compound 0.0316 µM
[8] = second compound 0.1 µM, first compound 0.1 µM
[9] = second compound 0.1 µM, first compound 0.316 µM
[10] = second compound 0.1 µM, first compound 1 µM
[11] = second compound 0.1 µM, first compound 3.16 µM
[12] = second compound 0.1 µM, first compound 10 µM
[13] = second compound 0.316 µM, first compound 0.0316 µM
[14] = second compound 0.316 µM, first compound 0.1 µM
[15] = second compound 0.316 µM, first compound 0.316 µM
[16] = second compound 0.316 µM, first compound 1 µM
[17] = second compound 0.316 µM, first compound 3.16 µM
[18] = second compound 0.316 µM, first compound 10 µM
[19] = second compound 1 µM, first compound 0.0316 µM
[20] = second compound 1 µM, first compound 0.1 µM
[21] = second compound 1 µM, first compound 0.316 µM
[22] = second compound 1 µM, first compound 1 µM
[23] = second compound 1 µM, first compound 3.16 µM
[24] = second compound 1 µM, first compound 10 µM
[25] = second compound 3.16 µM, first compound 0.0316 µM
[26] = second compound 3.16 µM, first compound 0.1 µM
[27] = second compound 3.16 µM, first compound 0.316 µM
[28] = second compound 3.16 µM, first compound 1 µM
[29] = second compound 3.16 µM, first compound 3.16 µM
[30] = second compound 3.16 µM, first compound 10 µM
[31] = second compound 10 µM, first compound 0.0316 µM
[32] = second compound 10 µM, first compound 0.1 µM
[33] = second compound 10 µM, first compound 0.316 µM
[34] = second compound 10 µM, first compound 1 µM
[35] = second compound 10 µM, first compound 3.16 µM
[36] = second compound 10 µM, first compound 10 µM
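Wherever viability, T/C is given: spheroids exposed to drugs for seven days before readout.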

COc1cc(C2c3cc4c(cc3C(OC3OC5COC(C)OC5C(O)C3O)C3COC(=O)C23)OCO4)cc(OC)c1O (centres undefined) + COC1C(OC(N)=O)C(O)C(Oc2ccc3c(O)c(NC(=O)c4ccc(O)c(CC=C(C)C)c4)c(=O)oc3c2C)OC1(C)C
IC50 (second compound 0.0316 µM): > 10 µM | IC50 (second compound 0.1 µM): > 10 µM | IC50 (second compound 0.316 µM): > 10 µM | IC50 (second compound 1 µM): 9.06 µM | IC50 (second compound 3.16 µM): > 10 µM | IC50 (second compound 10 µM): 7.76 µM | viability, T/C [1]: 86% | viability, T/C [2]: 89.4% | viability, T/C [3]: 95.3% | viability, T/C [4]: 79.8% | viability, T/C [5]: 57% | viability, T/C [6]: 50.8% | viability, T/C [7]: 102% | viability, T/C [8]: 91.3% | viability, T/C [9]: 88.2% | viability, T/C [10]: 86% | viability, T/C [11]: 60% | viability, T/C [12]: 54.5% | viability, T/C [13]: 98% | viability, T/C [14]: 89.3% | viability, T/C [15]: 97.5% | viability, T/C [16]: 83.6% | viability, T/C [17]: 60.7% | viability, T/C [18]: 52.1% | viability, T/C [19]: 81.8% | viability, T/C [20]: 82.6% | viability, T/C [21]: 97% | viability, T/C [22]: 82.1% | viability, T/C [23]: 78.9% | viability, T/C [24]: 47.3% | viability, T/C [25]: 85.8% | viability, T/C [26]: 93.6% | viability, T/C [27]: 89.5% | viability, T/C [28]: 91% | viability, T/C [29]: 64.4% | viability, T/C [30]: 57.8% | viability, T/C [31]: 114% | viability, T/C [32]: 96.3% | viability, T/C [33]: 91.8% | viability, T/C [34]: 85.1% | viability, T/C [35]: 58.5% | viability, T/C [36]: 47.2%

O=C(c1cc(Cc2n[nH]c(=O)c3ccccc23)ccc1F)N1CCN(C(=O)C2CC2)CC1 + Nc1ccc(C#CCN(C(=O)Cc2ncc(C(F)(F)F)cc2C(F)(F)F)c2ccc(F)cc2)nn1
IC50 (second compound 0.0316 µM): > 10 µM | IC50 (second compound 0.1 µM): > 10 µM | IC50 (second compound 0.316 µM): > 10 µM | IC50 (second compound 1 µM): > 10 µM | IC50 (second compound 3.16 µM): > 10 µM | IC50 (second compound 10 µM): > 10 µM | viability, T/C [1]: 98.2% | viability, T/C [2]: 73.7% | viability, T/C [3]: 93.5% | viability, T/C [4]: 90% | viability, T/C [5]: 92.1% | viability, T/C [6]: 75.4% | viability, T/C [7]: 90.1% | viability, T/C [8]: 93.5% | viability, T/C [9]: 86.9% | viability, T/C [10]: 91.3% | viability, T/C [11]: 82.7% | viability, T/C [12]: 67.1% | viability, T/C [13]: 102% | viability, T/C [14]: 98% | viability, T/C [15]: 84% | viability, T/C [16]: 84.1% | viability, T/C [17]: 90.7% | viability, T/C [18]: 80.2% | viability, T/C [19]: 93.1% | viability, T/C [20]: 93.9% | viability, T/C [21]: 84.3% | viability, T/C [22]: 88.9% | viability, T/C [23]: 84.2% | viability, T/C [24]: 76.8% | viability, T/C [25]: 92.7% | viability, T/C [26]: 93.7% | viability, T/C [27]: 85.8% | viability, T/C [28]: 92.2% | viability, T/C [29]: 80.6% | viability, T/C [30]: 82.6% | viability, T/C [31]: 80.7% | viability, T/C [32]: 85.5% | viability, T/C [33]: 88% | viability, T/C [34]: 92.7% | viability, T/C [35]: 81.3% | viability, T/C [36]: 68.7%
